These results are taken from patent US9079930B2, “Substituted pyrimidines” (MERCK SHARP & DOHME CORP., priority 2011, dated 2015).

Each structure is given as a SMILES string. pIC50: −log10 of the molar value.

A word on the pIC50: it is the IC50 on a negative log10 scale, so that one unit is a factor of ten. Low values mean a high IC50, high ones a low IC50.

T1 sequence (Q9GZT9 whole entry): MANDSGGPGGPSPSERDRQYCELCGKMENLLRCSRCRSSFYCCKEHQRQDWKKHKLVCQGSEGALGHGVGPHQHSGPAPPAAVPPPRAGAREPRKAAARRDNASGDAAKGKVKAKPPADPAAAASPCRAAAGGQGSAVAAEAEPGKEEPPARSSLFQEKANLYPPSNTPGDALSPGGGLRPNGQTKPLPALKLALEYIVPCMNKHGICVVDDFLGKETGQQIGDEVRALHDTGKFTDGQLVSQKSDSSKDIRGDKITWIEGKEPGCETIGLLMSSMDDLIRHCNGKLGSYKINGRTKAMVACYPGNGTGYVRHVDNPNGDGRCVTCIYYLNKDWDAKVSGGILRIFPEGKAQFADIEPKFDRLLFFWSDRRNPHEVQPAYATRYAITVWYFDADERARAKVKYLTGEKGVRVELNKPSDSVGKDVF

The test concerns the target T1, FLAG-tagged full length PHD2 (Homo sapiens, UniProt Q9GZT9).
T1 construct: FLAG-tagged full length PHD2 expressed in and purified from baculovirus-infected Sf9 cells; FLAG; made in house; host or cells: baculovirus-infected Sf9 cells
The test is described as follows: PHD2 inhibition assay (time resolved fluorescence, HIF-1α peptide hydroxylation, VHL complex detection). In kind it is biochemical. The following applies: 0.2 μM 2-oxoglutarate, 0.5 μM HIF-1α peptide. As for the experimental part:
To each well of a 96-well plate was added 1 μL of test compound in DMSO and 20 μl of assay buffer (50 mM Tris pH 7.4/0.01% Tween-20/0.1 mg/ml bovine serum albumin/10 μM ferrous sulfate/i mM sodium ascorbate/20 μg/ml catalase) containing 0.15 μg/ml FLAG-tagged full length PHD2 expressed in and purified from baculovirus-infected Sf9 cells. After a 30 min preincubation at room temperature, the enzymatic reactions were initiated by the addition of 4 μL of substrates (final concentrations of 0.2 μM 2-oxoglutarate and 0.5 μM HIF-1α peptide biotinyl-DLDLEMLAPYIPMDDDFQL (SEQ ID NO: 1)). After 2 hr at room temperature, the reactions were terminated and signals were developed by the addition of a 25 μL quench/detection mix to a final concentration of 1 mM ortho-phenanthroline, 0.1 mM EDTA, 0.5 nM anti-(His)6 LANCE reagent (Perkin-Elmer Life Sciences), 100 nM AF647-labeled streptavidin (Invitrogen), and 2 μg/ml (His)6-VHL complex (S. Tan (2001) Protein Expr. Purif. 21, 224-234). The ratio of time resolved fluorescence signals at 665 and 620 nm was determined, and percent inhibition was calculated relative to an uninhibited control sample run in parallel.
As for `CCOP(=O)(O)c1ccc(C(NC(=O)c2cnc(-c3ccccn3)nc2O)c2ccccc2)cn1` (stereo not drawn) [Compound 4-2, Ethyl hydrogen 5-((4-hydroxy-2-(pyridin-2-yl)pyrimidine-5-carboxamido)(phenyl)methyl)pyridin-2-ylphosphonate], the pIC50 is 7.70 to 9.30.
Regarding `CP(=O)(O)c1ccc(C(NC(=O)c2cnc(-n3cccn3)nc2O)c2ccc(F)cc2)cc1` (stereo not drawn) [Compound 17-1, 4-((4-fluorophenyl)(4-hydroxy-2-(1H-pyrazol-1-yl)pyrimidine-5-carboxamido)methyl)phenyl(methyl)phosphinic acid], the pIC50 is 7.70 to 9.30.
`COc1ccc(C(NC(=O)c2cnc(-c3cccnn3)nc2O)P(=O)(O)O)cc1` (stereo not drawn) [Compound 36-1, (4-Hydroxy-2-(pyridazin-3-yl)pyrimidine-5-carboxamido)(4-methoxyphenyl)methyl phosphonic acid]: the pIC50 is 7.00 to 7.70.
`CCOC(=O)CNP(=O)(NCC(=O)OCC)c1ccc(C(NC(=O)c2cnc(-c3cccnn3)nc2O)c2ccc(OC)cc2)cc1` (stereo not drawn) [Compound 31-1, Diethyl 2,2′-((4-((4-hydroxy-2-(pyridazin-3-yl)pyrimidine-5-carboxamido)(4-methoxyphenyl)methyl)phenyl)phosphoryl)bis(azanediyl)diacetate] had a pIC50 of 7.70 to 9.30.
The compound `CCOC(=O)C(C)NP(=O)(N[C@@H](C)C(=O)OCC)c1ccc(C(NC(=O)c2cnc(-c3ccccn3)nc2O)c2ccc(OC)cc2)cc1` (stereo in doubt) [Compound 1-1-3, (2S,2′S)-diethyl 2,2′-((4-((4-hydroxy-2-(pyridin-2-yl)pyrimidine-5-carboxamido)(4-methoxyphenyl)methyl)phenyl)phosphoryl)bis(azanediyl)dipropanoate] had a pIC50 of 7.00 to 7.70.
As for `O=C(Cc1cccc(P(=O)(O)O)c1)Nc1cnc(-c2cccnn2)nc1O` [Compound 35-1, 3-(2-(4-hydroxy-2-(pyridazin-3-yl)pyrimidin-5-ylamino)-2-oxoethyl)phenyl phosphonic acid], the pIC50 is 5.00 to 7.00.
`CP(=O)(O)c1ccc([C@H](NC(=O)c2cnc(-n3cccn3)nc2O)c2ccccc2)cc1` [Compound 23-1, 4-((R)-(4-hydroxy-2-(1H-pyrazol-1-yl)pyrimidine-5-carboxamido)(phenyl)methyl)phenyl(methyl)phosphinic acid] gave a pIC50 of 7.70 to 9.30.
`CC(NC(=O)c1cnc(-c2cccnn2)nc1O)c1ccc(P(=O)(O)O)cc1` (stereo not drawn) [Compound 3-3a, 4-(1-(4-Hydroxy-2-(pyridazin-3-yl)pyrimidine-5-carboxamido)ethyl)phenylphosphonic acid] gave a pIC50 of 5.00 to 7.00.
Then `CCOP(=O)(O)c1ccc(C(NC(=O)c2cnc(-c3ccccn3)nc2O)c2ccccc2)cc1` (stereo not drawn) [Compound 2-3, Ethyl 4-((4-hydroxy-2-(pyridin-2-yl)pyrimidine-5-carboxamido)(phenyl)methyl)phenylphosphonate], with 7.70 to 9.30.
Then `C[C@H](NC(=O)c1cnc(-c2ccccn2)nc1O)c1ccc(P(=O)(O)O)cc1` [Compound 3-7, (S)-4-(1-(4-hydroxy-2-(pyridin-2-yl)pyrimidine-5-carboxamido)ethyl)phenylphosphonic acid], with 5.00 to 7.00; and `COc1ccc(C(NC(=O)c2cnc(-n3cccn3)nc2O)c2ccc([PH](=O)O)cc2)cc1` (stereo not drawn) [Compound 9-1, 4-((4-Hydroxy-2-(1H-pyrazol-1-yl)pyrimidine-5-carboxamido)(4-methoxyphenyl)methyl)phenylphosphinic acid], with 7.70 to 9.30.
In the case of `CCOP(=O)(OCC)c1ccc(C(C)C(=O)Nc2cnc(-n3cccn3)nc2O)cc1` (stereo not drawn) [Compound 11-1, Diethyl 4-(1-(4-hydroxy-2-(1H-pyrazol-1-yl)pyrimidin-5-ylamino)-1-oxopropan-2-yl)phenylphosphonate], the pIC50 is 5.00 to 7.00.
Regarding `COc1ccc(C(NC(=O)c2cnc(-c3cccnn3)nc2O)c2ccc([PH](=O)O)cc2)cc1` (stereo not drawn) [Compound 9-2, 4-((4-hydroxy-2-(pyridazin-3-yl)pyrimidine-5-carboxamido)(4-methoxyphenyl)methyl)phenylphosphinic acid], the negative-log IC50 (pIC50) was 7.70 to 9.30.
Under `O=C(NC(c1ccc2ccccc2c1)P(=O)(O)O)c1cnc(-c2cccnn2)nc1O` (stereo not drawn) [Compound 30-3, (4-Hydroxy-2-(pyridazin-3-yl)pyrimidine-5-carboxamido)(naphthalen-2-yl)methyl phosphonic acid] stands 7.70 to 9.30; under `CC(C)OP(=O)(O)C(NC(=O)c1cnc(-c2ccccn2)nc1O)c1ccccc1` (stereo not drawn) [Compound 6-2, Isopropyl Hydrogen (4-hydroxy-2-(pyridin-2-yl)pyrimidine-5-carboxamido)(phenyl)methylphosphonate], 7.00 to 7.70.
For `C[C@H](NC(=O)c1cnc(-n2cccn2)nc1O)c1ccc(P(=O)(O)O)cc1` [Compound 15-3, (S)-4-(1-(4-hydroxy-2-(1H-pyrazol-1-yl)pyrimidine-5-carboxamido)ethyl)phenylphosphonic acid], the pIC50 is 5.00 to 7.00.
With `CCOC(=O)C(C)(C)NP(=O)(NC(C)(C)C(=O)OCC)c1ccc(C(NC(=O)c2cnc(-c3ccccn3)nc2O)c2ccc(OC)cc2)cc1` (stereo not drawn) [Compound 1-1-4, diethyl 2,2′-((4-((4-hydroxy-2-(pyridin-2-yl)pyrimidine-5-carboxamido)(4-methoxyphenyl)methyl)phenyl)phosphoryl)bis(azanediyl)bis(2-methylpropanoate)], the pIC50 is 7.70 to 9.30.
Then `C[C@@H](NC(=O)c1cnc(-c2cccnn2)nc1O)c1ccc(P(=O)(O)O)cc1` [Compound 3-5a, (R)-4-(1-(4-hydroxy-2-(pyridazin-3-yl)pyrimidine-5-carboxamido)ethyl)phenylphosphonic acid], with 7.00 to 7.70; and `CCOP(=O)(OCC)c1ccc(C(C(=O)Nc2cnc(-n3cccn3)nc2O)C(C)C)cc1` (stereo not drawn) [Compound 13-1, Diethyl 4-(1-(4-hydroxy-2-(1H-pyrazol-1-yl)pyrimidin-5-ylamino)-3-methyl-1-oxobutan-2-yl)phenylphosphonate], with 7.00 to 7.70; and `CC(C)OP(=O)(OC(C)C)C(NC(=O)c1cnc(-c2ccccn2)nc1O)c1ccccc1` (stereo not drawn) [Compound 6-1, Diisopropyl (4-hydroxy-2-(pyridin-2-yl)pyrimidine-5-carboxamido)(phenyl)methyl phosphonate], with 7.70 to 9.30.
In the case of `CP(=O)(O)c1cccc([C@H](NC(=O)c2cnc(-n3cccn3)nc2O)c2ccccc2)c1` [Compound 24-1, 3-((R)-(4-hydroxy-2-(1H-pyrazol-1-yl)pyrimidine-5-carboxamido)(phenyl)methyl)phenyl(methyl)phosphinic acid], the pIC50 is 7.70 to 9.30.
In the case of `CCOP(C)(=O)c1ccc(C(NC(=O)c2cnc(-n3cccn3)nc2O)c2ccccc2)cc1` (stereo not drawn) [Compound 8-3, Ethyl 4-((4-hydroxy-2-(1H-pyrazol-1-yl)pyrimidine-5-carboxamido)(phenyl)methyl)phenyl(methyl)phosphinate], the pIC50 is 7.70 to 9.30.
Regarding `CP(=O)(O)c1ccc([C@@H](NC(=O)c2cnc(-n3cccn3)nc2O)c2ccc(F)cc2)cc1` [Compound 19-1, 4-((S)-(4-fluorophenyl)(4-hydroxy-2-(1H-pyrazol-1-yl)pyrimidine-5-carboxamido)methyl)phenyl(methyl)phosphinic acid], the pIC50 was 7.70 to 9.30.
Consider `CCOP(C)(=O)c1ccc(C(NC(=O)c2cnc(-c3ccccn3)nc2O)c2ccccc2)cc1` (stereo not drawn) [Compound 2-4, ethyl 4-((4-hydroxy-2-(pyridin-2-yl)pyrimidine-5-carboxamido)(phenyl)methyl)phenyl(methyl)phosphinate], for which the pIC50 is 7.70 to 9.30.
`CP(=O)(O)c1ccc([C@@H](NC(=O)c2cnc(-n3cccn3)nc2O)c2ccccc2)cc1` [Compound 22-1, 4-((S)-(4-hydroxy-2-(1H-pyrazol-1-yl)pyrimidine-5-carboxamido)(phenyl)methyl)phenyl(methyl)phosphinic acid] showed a pIC50 of 7.70 to 9.30.
Under `COc1ccc(C(NC(=O)c2cnc(-c3ccccn3)nc2O)c2ccc([PH](=O)O)cc2)cc1` (stereo not drawn) [Compound 1-1-6, 4-((4-hydroxy-2-(pyridin-2-yl)pyrimidine-5-carboxamido)(4-methoxyphenyl)methyl)phenylphosphinic acid] stands 7.70 to 9.30; under `O=C(NC(c1ccccc1)c1ccc(P(=O)(O)O)cc1)c1cnc(-c2ccccn2)nc1O` (stereo not drawn) [Compound 2-2, 4-((4-hydroxy-2-(pyridin-2-yl)pyrimidine-5-carboxamido)(phenyl)methyl)phenyl phosphonic acid], 7.70 to 9.30; under `CCOP(=O)(OCC)c1ccc(C(C)NC(=O)c2cnc(-c3ccccn3)nc2O)cc1` (stereo not drawn) [Compound 3-1, Diethyl 4-(1-(4-hydroxy-2-(pyridin-2-yl)pyrimidine-5-carboxamido)ethyl)phenyl phosphonate], 7.00 to 7.70.
`C[C@@H](NC(=O)c1cnc(-n2cccn2)nc1O)c1ccc(P(=O)(O)O)cc1` [Compound 15-2, (R)-4-(1-(4-hydroxy-2-(1H-pyrazol-1-yl)pyrimidine-5-carboxamido)ethyl)phenyl phosphonic acid] had a pIC50 of 7.70 to 9.30.
The compound `CCOP(=O)(OCC)c1ccc(C(C(=O)Nc2cnc(-n3cccn3)nc2O)c2ccccc2)cc1` (stereo not drawn) [Compound 14-1, Diethyl 4-(2-(4-hydroxy-2-(1H-pyrazol-1-yl)pyrimidin-5-ylamino)-2-oxo-1-phenylethyl)phenylphosphonate] gave a pIC50 of 7.70 to 9.30.
